In data set [1] the target is T1, hSULT1A3 (Homo sapiens, UniProt P0DMM9).
T1 construct: 6-histidine tag (N); TEV site (N); made in house; host or cells: Escherichia coli BL21 (DE3), pET29a(+)
The data set can be described thus: hSULT1As reaction phenotyping assay (HPLC), hSULT1A3. It counts as biochemical. Conditions: fluorophore 10 μM, PAPS 200 μM, 1 h, 37 °C. As for the experimental part:
(§1) The incubation system consisted of Tris-HCl buffer (pH 7.4, 50 mM), MgCl2 (5 mM), DTT (200 μM), recombinant hSULT1As (29 pmol), and each fluorophore or 4-HN derivative (10 μM). After pre-incubation at 37 °C for 3 min, the reaction was initiated by adding an excess of PAPS (200 μM). Following 1 h incubation, the reaction was terminated with the addition of an equal volume of ice-cold acetonitrile. After centrifugation at 20,000× g for 20 min at 4 °C, the supernatant was collected for HPLC analysis. The mobile phase consisted of 10 mM aqueous ammonium acetate (A) and acetonitrile (B) at a flow rate of 0.4 mL/min. Gradient elution was performed under the following conditions: 0–2.0 min, 5% B; 2.0–10.0 min, 5–95% B; 10.0−12.0 min, 95% B; 12.0–12.5 min, 95–5% B; and 12.5–15.0 min, 5% B.

Data set [2] concerns the target T2, hSULT1A1 (Homo sapiens, UniProt P50225).
T2 construct: 6-histidine tag (N); TEV site (N); made in house; host or cells: Escherichia coli BL21 (DE3), pET29a(+)
The data set can be described thus: hSULT1As reaction phenotyping assay (HPLC), hSULT1A1. It is filed as biochemical. Conditions: for Sulfation rate: peak area of the sulfated metabolite detected by HPLC, hSULT1A1: fluorophore 10 μM, PAPS 200 μM, 1 h, 37 °C. As for the experimental part: as §1

In data set [3] the test system is hSULT1As. The data set can be described thus: O-sulfation and spectroscopic changes with hSULT1As (statements for all isoforms together). It is filed as biochemical, human. Conditions: substrate 10 μM, all tested hSULT1A isozymes. As for the experimental part: as §1
The spectroscopic changes in these fluorophores following O-sulfation were investigated. The incubation system was the same as that used in Section 2.3. The emission spectra of eight fluorophores in the presence and absence of three hSULT1A isoforms were determined using BioTek Synergy H1.

For data set [4], the target named is T3, hSULT1A2 (Homo sapiens, UniProt P50226).
T3 construct: 6-histidine tag (N); TEV site (N); made in house; host or cells: Escherichia coli BL21 (DE3), pET29a(+)
T3 sequence (P50226 whole entry): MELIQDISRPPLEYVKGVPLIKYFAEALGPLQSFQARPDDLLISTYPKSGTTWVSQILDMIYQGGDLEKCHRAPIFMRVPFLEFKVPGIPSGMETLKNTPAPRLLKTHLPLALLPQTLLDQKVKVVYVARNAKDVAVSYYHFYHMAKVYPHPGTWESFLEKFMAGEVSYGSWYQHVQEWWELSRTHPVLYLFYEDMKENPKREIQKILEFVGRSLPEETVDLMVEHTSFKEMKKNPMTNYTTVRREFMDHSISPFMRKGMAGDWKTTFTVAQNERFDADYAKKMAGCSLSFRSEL
The data set can be described thus: hSULT1As reaction phenotyping assay (HPLC), hSULT1A2. Conditions: for Sulfation rate: peak area of the sulfated metabolite detected by HPLC, hSULT1A2: fluorophore 10 μM, PAPS 200 μM, 1 h, 37 °C. It is filed as biochemical. As for the experimental part:
as §1

In data set [5] the target is T3, hSULT1A2. Description: Enzymatic kinetics of hSULT1A2-catalyzed HN-241 4-O-sulfation. It is filed as biochemical. As for the experimental part:
(§2) The enzymatic kinetic parameters of hSULT1As-catalyzed HN-241 4-O-sulfation were measured by incubating increasing concentrations of HN-241 with each of the hSULT1As for a certain period. The fitting equations included Equation (2), the Michaelis–Menten equation, and Equation (3) for enzyme kinetics with substrate inhibition. Related kinetic parameters were fitted by GraphPad Prism 8.0 (San Diego, CA, USA). (2) V=Vmax × [S]/Km+[S] (3) V=Vmax × [S]/Km+[S](1+[S]/Ki)
(§3) [S] refers to the concentration of HN-241, Vmax is the maximum rate of hSULT1As-catalyzed HN-241 4-O-sulfation, Km is the substrate concentration at the half Vmax, and Ki represents the dissociation constant for the binding of the substrate to the inhibitory site.

Data set [6] can be described thus: Fluorescence quantum yield. It counts as physicochemical. Conditions: physiological conditions; standard quinine sulfate (Φ = 0.55). As for the experimental part: The fluorescence quantum yield is defined as the ratio of the number of photons emitted to the number of photons absorbed, which is a key parameter in fluorescence spectroscopy that describes the efficiency of the fluorescence process. The fluorescence quantum yields (Φ) of HN-241 and HN-241 sulfate were measured using quinine sulfate in 50 mM aqueous H2SO4 (Φ = 0.55) as the standard, and calculated according to the following Equation (1). (1) Yu=Ys × Fu × As/Fs × Au
“A” represents the absorbance at the excitation wavelength, “F” denotes the integral fluorescence intensity, and the subscripts “s” and “u” refer to the standard and sample, respectively.

The target in data set [7] is T1, hSULT1A3. The data set can be described thus: Enzymatic kinetics of hSULT1A3-catalyzed HN-241 4-O-sulfation. It counts as biochemical. As for the experimental part: as §2, §3
In data set [8] the target is T2, hSULT1A1. Description: Enzymatic kinetics of hSULT1A1-catalyzed HN-241 4-O-sulfation. It counts as biochemical. The protocol: as §2, §3
Data set [9] relates to hSULT1As. Also noted: method as in PMID 12264750, PMID 35713964, PMID 6786543. The note with it: ascorbic acid as competitive inhibitor of hSULT1As; ref [13],[14],[15]; cited from earlier work.

The structures appear in SMILES notation. Where a name gives a salt, the structure may show the parent alone.

This is an account of results in publication PMC11202169, “A Novel Fluorescence-Based Microplate Assay for High-Throughput Screening of hSULT1As Inhibitors” (Biosensors, 2024).

T1 sequence (P0DMM9 whole entry): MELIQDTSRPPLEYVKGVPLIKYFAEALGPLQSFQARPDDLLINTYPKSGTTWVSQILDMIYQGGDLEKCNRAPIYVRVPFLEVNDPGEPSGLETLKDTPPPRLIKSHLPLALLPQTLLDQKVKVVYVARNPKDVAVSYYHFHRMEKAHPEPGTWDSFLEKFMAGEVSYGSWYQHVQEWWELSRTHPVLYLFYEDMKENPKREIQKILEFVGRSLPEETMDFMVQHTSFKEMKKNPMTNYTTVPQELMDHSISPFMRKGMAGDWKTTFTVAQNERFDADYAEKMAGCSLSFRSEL
T2 sequence (P50225 whole entry): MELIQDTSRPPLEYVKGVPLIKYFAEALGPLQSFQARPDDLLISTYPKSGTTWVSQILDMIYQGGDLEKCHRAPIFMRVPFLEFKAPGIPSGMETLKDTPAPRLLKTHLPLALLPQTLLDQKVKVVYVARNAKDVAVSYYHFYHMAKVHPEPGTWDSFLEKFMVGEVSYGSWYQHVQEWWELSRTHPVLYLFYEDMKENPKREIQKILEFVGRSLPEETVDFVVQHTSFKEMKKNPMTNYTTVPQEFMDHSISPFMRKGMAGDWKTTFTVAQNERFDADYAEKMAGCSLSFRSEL

In the case of `CC[n+]1ccc(/C=C/c2ccc(-c3ccc(O)cc3)s2)c2ccccc21` [fluorophore H], the “Sulfation rate: peak area of the sulfated metabolite detected by HPLC, hSULT1A3” value (from here on “Sulfation rate: peak area … hSULT1A3”) on hSULT1A3 [1] is “+++ (“++” and “+++” denote ranges from 10,000 to 50,000, and greater than 50,000, respectively)”. On hSULT1A1 [2], the “Sulfation rate: peak area of the sulfated metabolite detected by HPLC, hSULT1A1” value (shortened to “Sulfation rate: peak area … hSULT1A1”) is “+++ (“++” and “+++” denote ranges from 10,000 to 50,000, and greater than 50,000, respectively)”. In the data set on hSULT1As [3], the “O-sulfation by hSULT1As (in words)” value was “highest O-sulfation rate”. Also, the “Sulfation rate: peak area of the sulfated metabolite detected by HPLC, hSULT1A2” value (“Sulfation rate: peak area … hSULT1A2” below) on hSULT1A2 [4] is “++ (“++” and “+++” denote ranges from 10,000 to 50,000, and greater than 50,000, respectively)”.
Turning to `CC1=[N+]2C(=C(c3ccc(O)cc3)c3ccc(C)n3[B-]2(F)F)C=C1` [fluorophore C], the “O-sulfation by hSULT1As (in words)” value with hSULT1As [3] is listed as “could not be sulfated”.
On to `CC1(C)OC(=C(C#N)C#N)C(C#N)=C1/C=C/c1cc2ccc(O)cc2oc1=O` [fluorophore E], for which the “Sulfation rate: peak area … hSULT1A3” value at hSULT1A3 [1] is “+++ (“++” and “+++” denote ranges from 10,000 to 50,000, and greater than 50,000, respectively)”. Also, on hSULT1A1 [2], the “Sulfation rate: peak area … hSULT1A1” value is reported as “+ (“+” shows the peak area of the sulfated metabolites of each fluorophore detected by HPLC, ranging from 0 to 10,000)”. For the same compound, the “Sulfation rate: peak area … hSULT1A2” value on hSULT1A2 [4] was “+++ (“++” and “+++” denote ranges from 10,000 to 50,000, and greater than 50,000, respectively)”.
With `O=C(O)CCCN1C(=O)c2cccc3c(O)ccc(c23)C1=O` [HN-299], the “O-sulfation by hSULT1As (in words)” value with hSULT1As [3] is listed as “very slow O-sulfation rates”.
As for `CCN1C(=O)c2cccc3c(O)ccc(c23)C1=O` [HN-241, 4-hydroxy-N-ethyl-1,8-naphthalimide], the Clint is reported as 1440.94 μL/min/mg Protein at hSULT1A2 [5] (hSULT1A2), 683.26 μL/min/mg Protein at hSULT1A3 [7] (hSULT1A3) and 24,265.93 μL/min/mg Protein at hSULT1A1 [8] (HN-241 4-O-sulfation). The Vmax at hSULT1A2 [5] (hSULT1A2, Michaelis–Menten kinetics) is listed as 6441.00 pmol/min/mg Protein; at hSULT1A3 [7] (hSULT1A3, Michaelis–Menten kinetics) it was 8814.00 pmol/min/mg Protein. For the same compound, the “Fluorescence quantum yield (Φ)” value in [6] worked out at 0.02. Further, the “O-sulfation by hSULT1As (in words)” value in the data set with hSULT1As [3] was “highest O-sulfation rate”. For the same compound, the Ki at hSULT1A1 [8] (substrate inhibition constant of HN-241 (binding of substrate to the inhibitory site)) came to 1370 ± 400 nM.
Turning to `CCCCN1C(=O)c2cccc3c4c(cc(c23)C1=O)C(C)(C)C(/C=C/c1ccc(O)cc1)=N4` [fluorophore G], the “O-sulfation by hSULT1As (in words)” value with hSULT1As [3] is given as “could not be sulfated”.
With `O=C1c2cccc3c(O)ccc(c23)C(=O)N1CCc1ccc(F)cc1` [HN-335], the “O-sulfation by hSULT1As (in words)” value with hSULT1As [3] is “very slow O-sulfation rates”.
`CCN1C(=O)c2cccc3c(OS(=O)(=O)O)ccc(c23)C1=O` [HN-241 sulfate]: the “Fluorescence quantum yield (Φ)” value in data set [6] is given as 0.86.
Take `N#CC(C#N)=C1C=C(/C=C/c2ccc(O)cc2)Oc2ccccc21` [fluorophore D]: the “Sulfation rate: peak area … hSULT1A1” value on hSULT1A1 [2] is “+++ (“++” and “+++” denote ranges from 10,000 to 50,000, and greater than 50,000, respectively)”. Besides, on hSULT1A2 [4], the “Sulfation rate: peak area … hSULT1A2” value was “++ (“++” and “+++” denote ranges from 10,000 to 50,000, and greater than 50,000, respectively)”.
In the case of `CC1(C)OC(=C(C#N)C#N)C(C#N)=C1/C=C/c1ccc2cc(O)ccc2c1` [fluorophore F], the “Sulfation rate: peak area … hSULT1A1” value at hSULT1A1 [2] was “+++ (“++” and “+++” denote ranges from 10,000 to 50,000, and greater than 50,000, respectively)”. In addition, on hSULT1A2 [4], the “Sulfation rate: peak area … hSULT1A2” value is “+ (“+” shows the peak area of the sulfated metabolites of each fluorophore detected by HPLC, ranging from 0 to 10,000)”.
For `O=C1c2cccc3c(O)ccc(c23)C(=O)N1CCc1ccccc1` [HN-317], the “O-sulfation by hSULT1As (in words)” value in the data set with hSULT1As [3] is “very slow O-sulfation rates”.
With `O=C1O[C@H]([C@@H](O)CO)C(O)=C1O` [ascorbic acid], the “Boost of the bioavailability of ethinylestradiol” value in the data set with hSULT1As [9] is “approximately 50%”.
For the compound `CCCCN1C(=O)c2cccc3c(O)ccc(c23)C1=O` [fluorophore B, 4-hydroxy-N-butyl-1,8-naphthalimide], the “Sulfation rate: peak area … hSULT1A3” value at hSULT1A3 [1] was “++ (“++” and “+++” denote ranges from 10,000 to 50,000, and greater than 50,000, respectively)”. In addition, the “Sulfation rate: peak area … hSULT1A1” value at hSULT1A1 [2] was “++ (“++” and “+++” denote ranges from 10,000 to 50,000, and greater than 50,000, respectively)”. Also, at hSULT1A2 [4], the “Sulfation rate: peak area … hSULT1A2” value was “++ (“++” and “+++” denote ranges from 10,000 to 50,000, and greater than 50,000, respectively)”.
Take `CN(C)CCN1C(=O)c2cccc3c(O)ccc(c23)C1=O` [HN-283]: the “O-sulfation by hSULT1As (in words)” value with hSULT1As [3] is given as “very slow O-sulfation rates”.
`O=c1ccc2nc3ccc(O)cc3oc-2c1` [fluorophore A]: on hSULT1A1 [2], the “Sulfation rate: peak area … hSULT1A1” value was “++ (“++” and “+++” denote ranges from 10,000 to 50,000, and greater than 50,000, respectively)”. On hSULT1A2 [4], the “Sulfation rate: peak area … hSULT1A2” value was “+ (“+” shows the peak area of the sulfated metabolites of each fluorophore detected by HPLC, ranging from 0 to 10,000)”.
With `Cc1ccc(NC(=O)CCCN2C(=O)c3cccc4c(O)ccc(c34)C2=O)cc1` [HN-388], the “O-sulfation in hSULT1A1 (in words)” value at hSULT1A1 [2] (4-HN derivative 10 μM) was “rapidly metabolized”. Moreover, the “O-sulfation in hSULT1A2 (in words)” value on hSULT1A2 [4] (4-HN derivative 10 μM) was “scarcely metabolized”.
